Results on 1 compound are retold here after ChEMBL document CHEMBL1145633, “Inhibitors of the tyrosine kinase EphB4. Part 1: Structure-based design and optimization of a series of 2,4-bis-anilinopyrimidines” (Bioorg Med Chem Lett, 2008).

The target of data set [1] is Proto-oncogene tyrosine-protein kinase Src (Homo sapiens, UniProt P12931). As to the kind of experiment: Inhibition of Src.
The target of data set [2] is Tyrosine-protein kinase CSK (Homo sapiens, UniProt P41240). As to the kind of experiment: Inhibition of CSK.
Data set [3] concerns the target Cyclin-dependent kinase 2 (Homo sapiens, UniProt P24941). As to the kind of experiment: Inhibition of CDK2.
Data set [4] deals with Focal adhesion kinase 1 (Homo sapiens, UniProt Q05397). As to the kind of experiment: Inhibition of FAK.
The target in data set [5] is T1, Tyrosine-protein kinase JAK3 (Homo sapiens, UniProt P52333).
T1 sequence (P52333 whole entry): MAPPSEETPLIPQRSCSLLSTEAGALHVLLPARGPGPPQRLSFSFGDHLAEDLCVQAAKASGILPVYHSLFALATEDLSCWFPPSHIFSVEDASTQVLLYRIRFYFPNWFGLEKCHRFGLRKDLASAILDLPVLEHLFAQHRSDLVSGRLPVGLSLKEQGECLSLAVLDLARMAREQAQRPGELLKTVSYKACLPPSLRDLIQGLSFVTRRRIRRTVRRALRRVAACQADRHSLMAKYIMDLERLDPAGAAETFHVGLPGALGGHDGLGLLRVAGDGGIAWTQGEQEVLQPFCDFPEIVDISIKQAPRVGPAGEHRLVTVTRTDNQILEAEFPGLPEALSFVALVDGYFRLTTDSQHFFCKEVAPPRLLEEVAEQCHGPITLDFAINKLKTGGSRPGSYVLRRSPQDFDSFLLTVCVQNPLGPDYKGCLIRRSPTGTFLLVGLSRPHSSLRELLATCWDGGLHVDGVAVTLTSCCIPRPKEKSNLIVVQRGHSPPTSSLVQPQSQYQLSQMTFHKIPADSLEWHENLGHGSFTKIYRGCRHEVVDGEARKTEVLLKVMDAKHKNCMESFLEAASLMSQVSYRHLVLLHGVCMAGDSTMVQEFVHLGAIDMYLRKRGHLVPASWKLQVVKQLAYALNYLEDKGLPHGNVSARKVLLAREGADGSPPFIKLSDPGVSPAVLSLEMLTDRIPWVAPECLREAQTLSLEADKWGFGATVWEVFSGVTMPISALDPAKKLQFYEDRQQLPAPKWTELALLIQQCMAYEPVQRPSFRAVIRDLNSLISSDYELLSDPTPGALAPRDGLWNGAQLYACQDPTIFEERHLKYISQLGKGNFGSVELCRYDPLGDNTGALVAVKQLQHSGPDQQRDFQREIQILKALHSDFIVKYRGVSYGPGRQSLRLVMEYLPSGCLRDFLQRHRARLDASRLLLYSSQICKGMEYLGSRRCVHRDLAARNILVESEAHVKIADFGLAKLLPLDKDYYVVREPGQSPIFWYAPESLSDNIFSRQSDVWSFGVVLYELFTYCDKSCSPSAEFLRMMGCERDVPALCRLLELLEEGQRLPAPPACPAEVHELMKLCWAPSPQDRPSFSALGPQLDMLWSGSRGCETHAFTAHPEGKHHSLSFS
As to the kind of experiment: Inhibition of JAK3.

Data set [6] is described as follows: Inhibition of p38.
Data set [7] concerns the target Insulin-like growth factor 1 receptor (Homo sapiens, UniProt P08069). In words: Inhibition of IGF.
The target of data set [8] is T2, Tyrosine-protein kinase ZAP-70 (Homo sapiens, UniProt P43403).
T2 sequence (P43403 whole entry): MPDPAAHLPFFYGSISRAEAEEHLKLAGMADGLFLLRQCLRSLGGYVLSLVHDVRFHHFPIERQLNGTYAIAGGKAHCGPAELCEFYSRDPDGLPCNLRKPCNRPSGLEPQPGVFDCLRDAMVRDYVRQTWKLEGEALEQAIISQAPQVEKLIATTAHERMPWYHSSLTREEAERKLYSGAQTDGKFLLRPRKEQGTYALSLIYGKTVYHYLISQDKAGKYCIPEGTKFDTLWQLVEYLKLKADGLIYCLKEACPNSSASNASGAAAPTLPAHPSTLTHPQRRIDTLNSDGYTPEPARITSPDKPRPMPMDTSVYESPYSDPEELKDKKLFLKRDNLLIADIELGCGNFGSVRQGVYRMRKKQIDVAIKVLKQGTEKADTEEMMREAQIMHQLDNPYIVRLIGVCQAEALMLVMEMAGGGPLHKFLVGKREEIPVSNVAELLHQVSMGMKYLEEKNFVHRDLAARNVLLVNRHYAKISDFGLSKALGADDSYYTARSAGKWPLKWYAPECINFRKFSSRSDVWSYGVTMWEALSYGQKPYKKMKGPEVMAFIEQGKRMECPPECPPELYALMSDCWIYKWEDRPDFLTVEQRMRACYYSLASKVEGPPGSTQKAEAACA
In words: Inhibition of ZAP70.

In data set [9] the target is Vascular endothelial growth factor receptor 2 (Homo sapiens, UniProt P35968). As to the kind of experiment: Inhibition of KDR.
Data set [10] has as its target Serine/threonine-protein kinase PLK1 (Homo sapiens, UniProt P53350). In words: Inhibition of PLK.
The target in data set [11] is T3, Serine/threonine-protein kinase Chk1 (Homo sapiens, UniProt O14757).
T3 sequence (O14757 whole entry): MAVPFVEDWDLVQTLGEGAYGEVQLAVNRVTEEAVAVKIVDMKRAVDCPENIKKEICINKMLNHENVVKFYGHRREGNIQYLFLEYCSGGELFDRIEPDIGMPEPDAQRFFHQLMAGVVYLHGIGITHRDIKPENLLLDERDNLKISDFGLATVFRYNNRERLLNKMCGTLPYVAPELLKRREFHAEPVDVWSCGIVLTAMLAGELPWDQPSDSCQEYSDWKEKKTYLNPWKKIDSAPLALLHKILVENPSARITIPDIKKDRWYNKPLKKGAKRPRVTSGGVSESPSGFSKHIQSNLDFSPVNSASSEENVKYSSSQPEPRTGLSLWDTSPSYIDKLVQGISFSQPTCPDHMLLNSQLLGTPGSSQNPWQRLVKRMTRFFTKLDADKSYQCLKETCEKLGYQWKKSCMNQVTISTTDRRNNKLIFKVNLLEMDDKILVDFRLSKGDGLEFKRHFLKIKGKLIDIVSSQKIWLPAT
In words: Inhibition of CHK1.

Data set [12] can be described thus: Inhibition of JNK.
The nature of data set [13]: Inhibition of PKA.
A short description of data set [14]: Lipophilicity, Log D of compound at pH 7.4. Type of data set: physicochemical. The following applies: buffer.
Data set [15] in a line: Aqueous solubility of compound at pH 7.4. Type of data set: physicochemical.
Data set [16] has as its system Plasma. In words: Protein binding in Han Wistar rat plasma assessed as free drug. The class given is ADME, cell-free.
Data set [17] is described as follows: Bioavailability in Han Wistar rat at 5 umol/kg, po. The following applies: in vivo. The class given is ADME, organism-based.
Data set [18] can be described thus: Volume of distribution at steady state in Han Wistar rat at 5 umol/kg, po or 0.5 umol/kg, iv. Type of data set: ADME, organism-based. The following applies: in vivo, read-out: Vdss.
Data set [19] can be described thus: Half life in Han Wistar rat at 5 umol/kg, po. Type of data set: ADME, organism-based. The following applies: in vivo.
Data set [20] in a line: AUC in Han Wistar rat at 5 umol/kg, po. The class given is ADME, organism-based. The following applies: plasma.
Data set [21] is described as follows: Clearance in Han Wistar rat at 5 umol/kg, po or 0.5 umol/kg, iv. The class given is ADME, organism-based. The following applies: in vivo.
The nature of data set [22]: Inhibition of FGF.

The structures appear in SMILES notation. pIC50: −log10 of the molar value. In brackets after ≈: the same amount, converted by molar mass. Where only a bound is given, the exact number is not on record here.

Chain of Serine/threonine-protein kinase PLK1 (P53350 whole entry): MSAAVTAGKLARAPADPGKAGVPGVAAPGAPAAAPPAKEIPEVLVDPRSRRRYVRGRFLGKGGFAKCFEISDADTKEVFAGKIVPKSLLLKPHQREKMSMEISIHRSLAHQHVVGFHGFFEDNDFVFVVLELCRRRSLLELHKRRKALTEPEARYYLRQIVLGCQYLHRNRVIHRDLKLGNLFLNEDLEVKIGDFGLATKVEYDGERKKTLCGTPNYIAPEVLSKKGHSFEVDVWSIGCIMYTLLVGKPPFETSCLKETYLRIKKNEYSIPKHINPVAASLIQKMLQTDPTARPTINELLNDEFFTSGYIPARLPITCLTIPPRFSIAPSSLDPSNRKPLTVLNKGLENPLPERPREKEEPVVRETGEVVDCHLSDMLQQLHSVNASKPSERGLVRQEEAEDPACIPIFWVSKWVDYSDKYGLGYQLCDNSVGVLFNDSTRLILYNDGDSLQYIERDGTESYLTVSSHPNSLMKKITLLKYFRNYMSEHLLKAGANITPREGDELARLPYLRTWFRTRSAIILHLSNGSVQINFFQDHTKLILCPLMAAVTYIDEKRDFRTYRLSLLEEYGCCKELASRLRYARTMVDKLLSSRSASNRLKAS
Chain of Proto-oncogene tyrosine-protein kinase Src (P12931 2-536 limits assumed): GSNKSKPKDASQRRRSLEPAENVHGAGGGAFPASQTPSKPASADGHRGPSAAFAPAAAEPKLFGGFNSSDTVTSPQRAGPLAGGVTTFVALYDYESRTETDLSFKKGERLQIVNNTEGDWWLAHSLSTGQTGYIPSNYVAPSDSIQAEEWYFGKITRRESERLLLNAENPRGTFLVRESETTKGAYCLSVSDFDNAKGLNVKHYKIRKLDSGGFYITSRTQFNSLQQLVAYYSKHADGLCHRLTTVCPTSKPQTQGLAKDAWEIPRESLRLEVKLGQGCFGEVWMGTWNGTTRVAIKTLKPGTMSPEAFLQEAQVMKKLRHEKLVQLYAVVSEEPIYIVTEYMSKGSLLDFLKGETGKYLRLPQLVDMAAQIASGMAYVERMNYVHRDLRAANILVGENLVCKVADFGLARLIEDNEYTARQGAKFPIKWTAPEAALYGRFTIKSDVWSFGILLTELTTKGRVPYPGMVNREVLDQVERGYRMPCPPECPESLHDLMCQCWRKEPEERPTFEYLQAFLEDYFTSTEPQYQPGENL
Chain of Insulin-like growth factor 1 receptor (P08069 31-736 limits assumed): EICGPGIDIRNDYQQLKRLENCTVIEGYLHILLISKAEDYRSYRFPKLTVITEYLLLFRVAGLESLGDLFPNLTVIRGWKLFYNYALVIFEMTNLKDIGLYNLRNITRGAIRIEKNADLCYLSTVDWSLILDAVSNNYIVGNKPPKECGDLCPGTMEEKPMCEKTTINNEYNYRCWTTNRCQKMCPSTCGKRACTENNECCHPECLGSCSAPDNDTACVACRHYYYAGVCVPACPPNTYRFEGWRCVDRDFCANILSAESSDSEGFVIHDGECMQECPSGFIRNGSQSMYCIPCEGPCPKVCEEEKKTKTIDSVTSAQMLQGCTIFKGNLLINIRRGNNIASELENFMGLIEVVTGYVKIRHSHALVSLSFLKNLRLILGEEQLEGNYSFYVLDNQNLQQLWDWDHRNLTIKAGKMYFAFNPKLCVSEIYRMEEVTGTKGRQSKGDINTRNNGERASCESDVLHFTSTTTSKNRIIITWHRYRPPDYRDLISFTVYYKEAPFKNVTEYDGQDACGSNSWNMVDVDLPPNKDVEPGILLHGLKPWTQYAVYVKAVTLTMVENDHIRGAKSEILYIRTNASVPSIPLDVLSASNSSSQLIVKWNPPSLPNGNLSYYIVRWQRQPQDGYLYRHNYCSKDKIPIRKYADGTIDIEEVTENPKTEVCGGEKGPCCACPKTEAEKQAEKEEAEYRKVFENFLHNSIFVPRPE
Chain of Insulin-like growth factor 1 receptor (P08069 741-1367 limits assumed): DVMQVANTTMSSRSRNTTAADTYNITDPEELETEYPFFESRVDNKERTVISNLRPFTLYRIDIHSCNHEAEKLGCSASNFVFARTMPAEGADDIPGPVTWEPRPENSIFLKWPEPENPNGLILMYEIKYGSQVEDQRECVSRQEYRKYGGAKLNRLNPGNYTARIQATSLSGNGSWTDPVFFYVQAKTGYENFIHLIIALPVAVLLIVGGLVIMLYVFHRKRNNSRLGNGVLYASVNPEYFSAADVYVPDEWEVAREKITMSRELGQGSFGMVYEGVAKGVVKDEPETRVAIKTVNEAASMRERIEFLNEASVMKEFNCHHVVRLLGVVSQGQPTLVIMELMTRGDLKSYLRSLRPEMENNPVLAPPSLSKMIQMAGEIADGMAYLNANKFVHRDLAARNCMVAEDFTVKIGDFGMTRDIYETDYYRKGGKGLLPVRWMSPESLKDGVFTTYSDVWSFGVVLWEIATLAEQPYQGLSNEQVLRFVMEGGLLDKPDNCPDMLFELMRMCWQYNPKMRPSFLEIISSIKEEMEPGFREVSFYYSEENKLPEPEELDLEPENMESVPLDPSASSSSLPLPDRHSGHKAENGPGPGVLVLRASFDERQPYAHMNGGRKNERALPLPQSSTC
Chain of Tyrosine-protein kinase CSK (P41240 whole entry): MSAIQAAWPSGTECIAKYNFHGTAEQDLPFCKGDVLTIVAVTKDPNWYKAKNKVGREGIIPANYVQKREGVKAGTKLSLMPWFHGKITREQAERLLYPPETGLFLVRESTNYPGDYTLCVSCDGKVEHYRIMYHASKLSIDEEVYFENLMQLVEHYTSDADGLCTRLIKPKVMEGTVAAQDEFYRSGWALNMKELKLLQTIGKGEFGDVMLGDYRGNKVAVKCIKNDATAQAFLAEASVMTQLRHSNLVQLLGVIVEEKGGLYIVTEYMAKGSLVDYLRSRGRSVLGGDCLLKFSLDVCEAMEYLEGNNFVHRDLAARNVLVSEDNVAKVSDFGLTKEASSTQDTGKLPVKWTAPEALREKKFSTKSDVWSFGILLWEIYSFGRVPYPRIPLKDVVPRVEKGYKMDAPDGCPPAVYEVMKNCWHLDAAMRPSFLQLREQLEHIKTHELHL
Chain of Vascular endothelial growth factor receptor 2 (P35968 whole entry): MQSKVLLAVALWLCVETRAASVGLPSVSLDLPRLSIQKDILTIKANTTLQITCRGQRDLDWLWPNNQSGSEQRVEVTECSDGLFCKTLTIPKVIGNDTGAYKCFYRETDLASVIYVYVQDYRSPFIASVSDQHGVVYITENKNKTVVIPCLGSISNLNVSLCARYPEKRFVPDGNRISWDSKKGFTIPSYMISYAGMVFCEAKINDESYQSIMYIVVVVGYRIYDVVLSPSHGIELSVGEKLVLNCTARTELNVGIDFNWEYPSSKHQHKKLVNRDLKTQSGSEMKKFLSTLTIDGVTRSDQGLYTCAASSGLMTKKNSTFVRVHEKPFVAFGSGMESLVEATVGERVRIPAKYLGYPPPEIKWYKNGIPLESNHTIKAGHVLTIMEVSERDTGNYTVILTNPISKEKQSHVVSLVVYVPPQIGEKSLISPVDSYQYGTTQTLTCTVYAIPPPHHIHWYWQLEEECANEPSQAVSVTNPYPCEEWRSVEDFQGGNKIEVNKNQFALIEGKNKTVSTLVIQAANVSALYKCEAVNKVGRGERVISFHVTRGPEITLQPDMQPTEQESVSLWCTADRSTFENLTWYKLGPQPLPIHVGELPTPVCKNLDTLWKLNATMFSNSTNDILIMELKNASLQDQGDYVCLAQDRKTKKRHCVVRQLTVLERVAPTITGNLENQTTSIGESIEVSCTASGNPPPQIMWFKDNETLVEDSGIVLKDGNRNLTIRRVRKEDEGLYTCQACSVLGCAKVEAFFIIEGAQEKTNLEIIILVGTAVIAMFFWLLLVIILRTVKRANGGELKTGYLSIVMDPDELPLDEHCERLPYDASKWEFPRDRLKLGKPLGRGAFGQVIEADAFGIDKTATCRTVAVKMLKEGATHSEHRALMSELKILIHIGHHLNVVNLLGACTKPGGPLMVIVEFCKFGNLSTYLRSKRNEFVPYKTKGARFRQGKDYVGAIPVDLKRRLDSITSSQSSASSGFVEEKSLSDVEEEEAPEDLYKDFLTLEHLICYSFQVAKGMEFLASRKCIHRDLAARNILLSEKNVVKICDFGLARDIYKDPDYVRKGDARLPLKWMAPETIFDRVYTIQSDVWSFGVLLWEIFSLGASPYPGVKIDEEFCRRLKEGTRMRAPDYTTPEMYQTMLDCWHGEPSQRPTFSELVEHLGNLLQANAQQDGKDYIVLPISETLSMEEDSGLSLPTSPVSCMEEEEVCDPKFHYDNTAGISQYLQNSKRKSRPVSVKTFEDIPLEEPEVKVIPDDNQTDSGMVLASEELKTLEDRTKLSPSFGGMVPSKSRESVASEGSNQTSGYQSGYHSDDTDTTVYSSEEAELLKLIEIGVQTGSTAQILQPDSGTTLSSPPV

By pIC50 is commonly meant −log10 of the IC50, conventionally taken in molar units. A word on the logD: it is the decadic logarithm of the distribution of all forms, ionised or not, between an organic phase and buffer at a given pH. Lower therefore signals lower lipophilicity. By solubility is commonly meant how much of the substance goes into solution per volume. Read a high solubility as a readily soluble substance. One may read the bioavailability as dose-corrected exposure relative to a reference, in per cent. Low values mean poor availability, high ones good availability. The half-life is how long it takes for the measured level to halve. The low end stands for fast loss, the high end for slow loss. Broadly, the AUC is the area under the concentration-time curve, a measure of exposure. As for `CS(=O)(=O)c1cccc(Nc2nccc(Nc3c(Cl)ccc4c3OCO4)n2)c1`, the negative-log IC50 (pIC50) in [1] was above 7.00; in [2], 4.97; in data set [3], 4.75; in [4], 4.71; in data set [5], 4.69; in data set [6], 4.57. Moreover, the negative logarithm of the IC50 (pIC50) in [7], in data set [8], in data set [9], in data set [10], in data set [11] and in [12] was below 4.52 in each case. The pIC50 in data set [13] and in data set [22] was below 4.52 in each case. This compound yielded a logD in [14] of 3.13. Besides, the solubility in data set [15] was 30 µM (≈ 12.6 µg/mL). For the same compound, the Fu in data set [16] is on record as 0.74%. The compound also displayed a bioavailability in data set [17] of 30%. For the same compound, the Vd in [18] was determined as 0.5 L/kg. Moreover, the half-life in data set [19] is 5.3 h. Also, the AUC in [20] was determined as 4 µM·h. Further, the clearance in [21] worked out at 6.1 mL/min/kg.
